Paper PMC5336470, “Insights into the mechanism of membrane pyrophosphatases by combining experiment and computer simulation” (Structural Dynamics, 2017)

Target: T1, VrPPase (Vigna radiata, UniProt P21616)
T1 construct: VrPPase reconstituted into liposomes (proteoliposomes); homodimer
T1 sequence (P21616 2-766): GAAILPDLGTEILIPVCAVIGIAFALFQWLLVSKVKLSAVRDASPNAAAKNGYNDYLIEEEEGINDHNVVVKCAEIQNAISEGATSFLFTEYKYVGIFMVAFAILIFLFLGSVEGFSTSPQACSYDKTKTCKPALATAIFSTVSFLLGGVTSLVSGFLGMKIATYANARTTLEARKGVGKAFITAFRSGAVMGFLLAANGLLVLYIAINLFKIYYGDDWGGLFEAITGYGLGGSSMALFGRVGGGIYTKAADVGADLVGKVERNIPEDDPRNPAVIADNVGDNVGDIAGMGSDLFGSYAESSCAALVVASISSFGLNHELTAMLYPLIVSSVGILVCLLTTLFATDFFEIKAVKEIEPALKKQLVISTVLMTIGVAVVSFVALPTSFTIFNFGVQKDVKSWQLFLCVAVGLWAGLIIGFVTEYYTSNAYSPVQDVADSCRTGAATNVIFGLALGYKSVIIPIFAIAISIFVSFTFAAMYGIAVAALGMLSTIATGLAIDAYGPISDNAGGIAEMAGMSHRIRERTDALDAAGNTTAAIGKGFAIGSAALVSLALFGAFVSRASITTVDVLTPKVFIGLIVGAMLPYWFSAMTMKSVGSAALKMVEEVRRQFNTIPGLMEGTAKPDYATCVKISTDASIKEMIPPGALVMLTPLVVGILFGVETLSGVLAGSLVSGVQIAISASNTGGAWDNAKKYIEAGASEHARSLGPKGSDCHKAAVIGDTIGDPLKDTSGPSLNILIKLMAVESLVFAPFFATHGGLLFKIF
Test: SURFE2R N1 electrometric proton-pumping current, proteoliposomes
Format: biochemical
Conditions: 200 uM K2HPO4 as control, 10 uM CCCP as protonophore control

O=P(O)(O)NP(=O)(O)O [imidodiphosphate]
SURFE2R N1 electrometric proton-pumping current, proteoliposomes (50 uM IDP, non-hydrolysable substrate analogue): IDP-bound VrPPase specifically pumps protons

O=P(O)(O)CP(=O)(O)O [methylene diphosphonate]
SURFE2R N1 electrometric proton-pumping current, proteoliposomes (50 uM MEDP, non-hydrolysable substrate analogue): VrPPase in the presence of another substrate analogue, methylene diphosphonate (MEDP), similarly produces a change

O=P(O)(O)OP(=O)(O)O [pyrophosphate]
SURFE2R N1 electrometric proton-pumping current, proteoliposomes (50 uM K4PPi): Addition of CCCP to membrane-embedded VrPPase in the presence of PPi reduces the ion-pumping current
